# Measurements taken from patent publication US5221616A, “Prevention of spontaneous complement activation in mammalian biological fluids” (Quidel Corporation, priority 1988, dated 1993).
# Tests used:
# C3 = target: T1, C3 (Homo sapiens, UniProt P01024); assay: iC3b fragment EIA: spontaneous C3 activation in EDTA-NHP incubated with increasing concentrations of polyhydroxyl compound in water; format: biochemical; conditions: 22° C. for 48 hr
# T1 construct: 250 μL of freshly drawn EDTA-normal human plasma (EDTA-NHP); from tissue; host or cells: normal human blood plasma (EDTA plasma; in A12 also citrate and heparin plasma)
# T1 sequence (P01024 672-1663 limits assumed): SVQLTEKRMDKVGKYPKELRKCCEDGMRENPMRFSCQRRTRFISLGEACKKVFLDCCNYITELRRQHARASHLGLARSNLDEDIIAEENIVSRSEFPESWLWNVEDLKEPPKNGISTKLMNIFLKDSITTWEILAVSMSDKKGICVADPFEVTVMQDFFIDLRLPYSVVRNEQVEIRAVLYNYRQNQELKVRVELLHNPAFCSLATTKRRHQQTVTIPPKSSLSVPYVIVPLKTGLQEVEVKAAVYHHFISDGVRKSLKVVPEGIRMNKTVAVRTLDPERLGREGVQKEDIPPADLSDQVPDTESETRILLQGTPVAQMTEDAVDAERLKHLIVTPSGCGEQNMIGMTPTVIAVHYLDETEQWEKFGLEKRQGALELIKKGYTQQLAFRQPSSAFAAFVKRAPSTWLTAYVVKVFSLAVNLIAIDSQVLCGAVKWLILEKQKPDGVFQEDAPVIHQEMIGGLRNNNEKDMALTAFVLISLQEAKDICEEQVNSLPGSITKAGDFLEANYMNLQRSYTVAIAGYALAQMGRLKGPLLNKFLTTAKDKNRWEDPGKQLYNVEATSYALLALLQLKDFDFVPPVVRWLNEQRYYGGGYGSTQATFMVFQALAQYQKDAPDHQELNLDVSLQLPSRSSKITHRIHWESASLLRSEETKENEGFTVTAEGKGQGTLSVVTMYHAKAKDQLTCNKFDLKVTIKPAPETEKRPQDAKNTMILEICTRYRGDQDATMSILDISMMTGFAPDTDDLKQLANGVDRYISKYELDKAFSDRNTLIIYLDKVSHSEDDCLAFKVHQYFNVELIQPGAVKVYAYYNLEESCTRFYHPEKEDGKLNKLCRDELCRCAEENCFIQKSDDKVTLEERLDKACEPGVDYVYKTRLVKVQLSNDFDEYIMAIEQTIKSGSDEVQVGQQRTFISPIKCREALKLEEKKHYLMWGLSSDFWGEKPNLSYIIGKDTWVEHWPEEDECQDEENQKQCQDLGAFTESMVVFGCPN
# T1 sequence (P01024 23-667 limits assumed): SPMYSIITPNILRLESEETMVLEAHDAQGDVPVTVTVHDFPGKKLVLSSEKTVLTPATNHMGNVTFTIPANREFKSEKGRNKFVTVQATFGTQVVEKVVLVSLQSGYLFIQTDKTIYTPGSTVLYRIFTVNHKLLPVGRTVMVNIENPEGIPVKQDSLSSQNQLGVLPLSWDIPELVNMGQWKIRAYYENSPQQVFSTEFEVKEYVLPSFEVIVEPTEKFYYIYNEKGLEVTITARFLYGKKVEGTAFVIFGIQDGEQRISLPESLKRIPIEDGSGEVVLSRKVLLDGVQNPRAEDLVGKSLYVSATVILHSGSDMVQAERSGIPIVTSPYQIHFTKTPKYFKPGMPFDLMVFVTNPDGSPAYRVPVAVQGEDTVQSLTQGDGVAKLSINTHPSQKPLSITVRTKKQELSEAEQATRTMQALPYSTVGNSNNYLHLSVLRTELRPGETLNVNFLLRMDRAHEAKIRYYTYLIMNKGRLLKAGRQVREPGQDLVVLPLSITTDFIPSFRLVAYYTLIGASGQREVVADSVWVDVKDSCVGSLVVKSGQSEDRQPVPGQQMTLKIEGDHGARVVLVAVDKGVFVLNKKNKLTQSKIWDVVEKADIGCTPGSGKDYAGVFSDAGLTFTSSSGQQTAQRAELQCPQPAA
# Method: FIG. 1. […] 250 μL of freshly drawn EDTA-normal human plasma (EDTA-NHP) was mixed with 0 to 250 μL of 4M β-D-glucose dissolved in deionized water. All reaction mixtures were brought up to a final reaction volume of 500 μL using deionized water as the diluent. Each reaction mixture was mixed thoroughly, incubated at 22° C. for 48 hr and assayed for iC3b fragment levels. A non-incubated control (-70° C.) was prepared by mixing 1 part EDTA-NHP with 1 part 4M β-D-glucose dissolved in deionized water. This control reaction mixture was stored at -70° C. until it was assayed in the iC3b fragment EIA along with the incubated experimental samples.
# Several different polyhydroxyl compounds were individually dissolved in deionized water to obtain solutions of each compound at a concentration approaching saturation at 22° C. Freshly drawn EDTA-NHP was mixed with increasing concentrations of the polyhydroxyl compound to be tested keeping the final reaction volumes constant. For example, 250 μL of freshly drawn EDTA-NHP was mixed with 0 to 250 μL of the concentrated polyhydroxyl solution to be tested. All reaction mixtures were brought up to a final reaction volume of 500 μL using deionized water as the diluent. Each reaction mixture was mixed thoroughly and incubated at 22° C. for 48 hr. A non-incubated control was prepared for each experiment by mixing 1 part EDTA-NHP with 1 part of the concentrated polyhydroxyl solution to be tested. This control mixture was held at -70° C. until it was thawed out, along with the other experimental samples, and assayed for the occurrence of spontaneous complement activation. For this initial set of experiments, iC3b fragment levels were quantitated in all test samples using the Cytotech monoclonal antibody based EIA procedure. The first analyte selected to be measured was iC3b since, based on previously published data as outlined above, it was anticipated that the C3 protein would be the most susceptible to spontaneous activation upon storage of EDTA-NHP in vitro.
# All of the EIA tests employed in these studies utilized solid-phase monoclonal antibody capture assay kit procedures (Cytotech, Inc., San Diego, Calif.). The procedure was basically the same for each EIA kit. Briefly, in the first step of each EIA assay, 100 μL of standards, controls and diluted test specimens were incubated at 22° C., i.e., room temperature, in duplicate polystyrene microtiter wells precoated with a capture monoclonal antibody which specifically reacted with the complement fragment or complex under investigation. During this first incubation period, complement fragments or complexes were bound to the monoclonal antibody coated microassay wells. A wash cycle removed unbound materials.
# In the second step, 50 μL of horseradish peroxidase (HRP)-conjugated purified IgG antibody, which reacted with the captured complement fragment or complex analyte, was added to each well and incubated at 22° C. A wash cycle removed unbound conjugate.
# In the third step, 100 μL of the HRP enzyme substrate ABTS (0.034% ABTS and 0.0126% H2 O2 in 100 mM sodium citrate buffer, pH 4.0) was added to each well and incubated at 22° C. The bound HRP-conjugatedantibody reacted with the ABTS substrate producing a green color which was proportional to the amount of specimen analyte bound. The HRP-enzymatic reaction was stopped upon addition of 50 μL 250 mM oxalic acid. The substrate color intensity present in each well was measured at 405 nm using an automated EIA microplate reader and the analyte concentration/mL in the original test specimen was determined for each analyte from the appropriate standard curve.
# iC3b EIA: The capture mouse monoclonal antibody used to coat microtiter wells for the iC3b fragment EIA was Cytotech MoAb 013III-1.1.6.1 which reacts with a neoantigenic determinant expressed on the iC3b activation fragment of human C3.
# C4 = assay: polyhydroxyl compounds in Buffer B mixed with EDTA-NHP: C4d fragment EIA; format: biochemical, human; conditions: final concentration 2M, 22° C. for 48 hr
# Method: An extensive series of experiments were conducted to examine the ability of a large variety of polyhydroxyl compounds to prevent the spontaneous activation of C in EDTA-NHP during in vitro storage at 22° C for 48 hr. EDTA-NHP was mixed with an equal volume of Buffer B containing the polyhydroxyl compound to be tested. In these experiments Buffer B consisted of 40 mM EDTA and 30 IU sodium heparin/mL dissolved in deionized water, pH 7.2. The final concentration of polyhydroxyl compound dissolved in Buffer B varied for each compound due to differences in solubility. For each set of experiments, EDTA-NHP was also diluted and mixed with an equal volume of PBS (untreated control). The EDTA-NHP samples mixed with each polyhydroxyl compound dissolved in Buffer B and the corresponding untreated controls were incubated at 22° C. for 48 hr, stored at -70° C. and subsequently assayed for C4d, iC3b, C3d,g/iC3b and Bb complement fragment levels as well as for circulating immune complex levels using the Raji Cell Replacement EIA. […] This conclusion was based upon the iC3b percent protection values determined for each of the polyhydroxyl compounds (treated samples) as listed in FIG. 14.
# The concentrations, expressed as μg analyte/mL, of a number of different activation products of spontaneous complement activation were measured in the course of these experiments. In an effort to normalize the data obtained from the various determinations so that the results from different assays could be directly compared to one another, a percent protection value was calculated for each analyte measured. The precent protection values were calculated by dividing the μg analyte/mL in the non-incubated, time-zero control sample by the μg analyte/mL in the experimental sample, multiplied by 100%. A percent protection value of 70 to 130% for any given analyte measured in an experimental sample was considered to indicate that the invention formulation tested was fully effective at providing protection against the occurrence of spontaneous complement activation. Ideally, the effective composition formulation would provide full protection against the occurrence of spontaneous complement activation in a complement-containing sample for all of the analytes measured. In fact, this was the case with several polyhydroxyl compounds when they were present in sufficiently high concentrations in a preferred embodiment of the invention.
smiles,measurement,setting,value
OC[C@H]1O[C@@H](O)[C@H](O)[C@@H](O)[C@@H]1O [β-D-glucose],final concentration that completely prevented spontaneous iC3b fragment production,C3; compared with -70° C. control,≥ 1.3 M
same,spontaneous iC3b fragment production,C3; increasing final concentrations of compound (galactose up to 2M),inhibited with increasing concentrations
same,prevention of spontaneous activation of C4 (C4d fragment production),C4,completely prevented
